System: leaf rust of wheat "Puccinia recondita"
Assay: Biotest: curative control of leaf rust of wheat
Type: in vivo
Settings: wheat seedlings "Kanzler", curative spray 2 days after inoculation; 50 ppm epoxiconazole without adjuvant; disease percent of total leaf area after 10 days
Method: 125 g/l epoxiconazole were ground together with in each case 20 g/l dispersant (Atlas G 5000^1, Synperonic A^1) and 50 g/l propylene glycol in aqueous medium in a stirred-ball mill (dyno-mill) until a particle size of 80%<2 μm was reached. To the mixture were added 3 g/l per liter antifoam, for example Rhodorsil 426^2, 3 g/l thickener, for example Rhodopol 23^2, and a biocide, for example Acticide MBS^3. The respective adjuvant, in aqueous solution or in a solvent, for example Solvesso, was stirred into this mixture, so that the final concentration of the formulation is composed of 62.5 g/l epoxiconazole and 125 g/l adjuvant. ^1Uniquema/Croda^2Rhodia^3Thor Chemie
Biotest (Curative Control of Leaf Rust of Wheat):
Leaves of wheat seedlings of the species “Kanzler” which had been grown in pots were dusted, in the two-leaf stage, with spores of leaf rust of wheat “Puccinia recondita” and incubated for 2 days in the greenhouse at high atmospheric humidity. In fully automated spray cabins, the plants were then sprayed with the formulations which comprised the active ingredients and adjuvants specified hereinbelow. The spray mixtures comprised 50 ppm epoxiconazole and 100 ppm adjuvant. […] After 10 days, the extent of the leaf rust disease was determined visually as disease percent of the total leaf area. 3 pots were evaluated for each combination.

Question: With `Fc1ccc([C@]2(Cn3cncn3)O[C@H]2c2ccccc2Cl)cc1` (racemic) [Epoxiconazole] as the compound, how does the “% infection” value read?
Answer: 40%

From US20100184603A1, “Alcohol alkoxylates, compositions containing these, and use of the alcohol alkoxylates as adjuvants for the agrochemical field” (BASF SE, priority 2007, published 2010)
